Laboratory results reported in patent publication US20210145768A1, “MODULATING IMMUNE RESPONSE VIA TARGETING OF OLFACTORY RECEPTOR ACTIVITY” (La Jolla Institute for Allergy and Immunology, priority 2018, published 2021).

Tests used:
Olfr2 = Olfr2 mRNA and protein expression in BMDMs (real time PCR, western blot, flow cytometry); assay type: cell-based, mouse; conditions: 12 h
Method: Olfr2 expression in BMDMs was investigated. Briefly, bone marrow cells from Apoe^−/− mice were stimulated with MCSF (20 ng/ml) for 7 d to generate BMDMs, which were left untreated or incubated with the Olfr2 agonist octanal (Oct, 10 μM), LPS, (500 ng/mL), or with both for 12 h.
(§1) BMDMs and hMDMs were incubated in culture media for 12 h at 37° C. and 5% CO2 with Oct, (10 μM), LPS (500 ng/mL) alone or combined with Oct (LPS+Oct) and DMSO (0.1%) as a control and lysed with Qiazol (500 μL; Qiagen) Similarly, whole aortas incubated as previously described were transferred into Qiazol (500 μl; Qiagen) and digested with gentleMACS™ Dissociator (Miltenyi).
BMDMs, hMDMs, mouse blood leukocytes and whole mount aortas were incubated in culture medium with Oct, (10 μM), LPS, (500 ng/mL) alone or combined (LPS+Oct) for 12h at 37° C. and 5% CO2. After the incubation aortas were cut into small pieces and digested for cell suspension as previously described^18. […]
For Olfr2 protein detection in BMDMs, cells were incubated in culture medium with Oct, (10 μM), LPS, (500 ng/mL) alone or combined (LPS+Oct) for 12h at 37° C. and 5% CO2. […] Total protein content was quantified using DC Protein Assay (Bio-Rad) and solubilized in a volume ratio of 1:1 with Laemmli Buffer (Bio-Rad). […]

OR6A2 = molecular target: T1, OR6A2 (Homo sapiens, UniProt O95222); test: Pro-inflammatory gene expression and cytokine secretion in hMDMs; assay type: cell-based; conditions: 12 h
T1 construct: OR6A2 protein surface expression in hMDMs was confirmed by flow cytometry; endogenous in cells; host or cells: human monocyte-derived macrophages from healthy donors (rhM-CSF, 7 d)
T1 sequence (O95222 1-327): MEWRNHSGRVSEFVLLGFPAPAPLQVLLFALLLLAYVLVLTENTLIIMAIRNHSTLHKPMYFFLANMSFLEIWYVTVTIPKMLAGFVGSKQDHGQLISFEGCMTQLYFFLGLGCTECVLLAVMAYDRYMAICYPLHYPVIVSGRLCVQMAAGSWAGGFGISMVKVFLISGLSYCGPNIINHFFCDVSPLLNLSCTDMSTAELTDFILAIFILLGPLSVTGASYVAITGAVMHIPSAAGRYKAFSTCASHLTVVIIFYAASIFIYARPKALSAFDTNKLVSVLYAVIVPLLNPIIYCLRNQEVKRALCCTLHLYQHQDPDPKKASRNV
Method: Peripheral blood mononuclear cells (PBMCs) were isolated from EDTA-venous blood of informed healthy donors (25-50 years old) from La Jolla Institute for Immunology's in-house Normal Blood Donor Program (NBDP), using a Ficoll-Paque (GE Healthcare) standard separation protocol. Human monocytes were enriched from PBMCs by the EasySep™ Human Monocyte Isolation Kit (StemCell) according to the manufacturer's instructions. Enriched monocytes were incubated with culture medium supplemented with 50 ng/ml rhM-CSF at 37° C. and 5% CO2 for 7 days. Differentiated macrophages at day 7 were used for further studies.
as §1
Total RNA was quantified using a nanodrop spectrophotometer (Peqlab) and 500 ng were reverse transcribed into cDNA using Omniscript reverse transcriptase (Qiagen). Real time PCR reactions were performed according to the RT^2 SYBR green gene expression assay protocol (Qiagen). RT2 SYBR Green qPCR master mix and premade RT^2 qPCR Primer Assays for mouse Olfr2, Rtp1, Rtp2, Ccl2, Ccl4, Tnf, Nos2 and Gapdh were used. […] The results were calculated applying the 2^−ΔΔCT method^32 using Gapdh/GAPDH as housekeeping gene.
Supernatants of stimulated cells and aortic tissue were analyzed by BD CBA Flex Sets (BD Biosciences) for mouse TNFα, CCL2, CCL4, IL-1β, or human TNF, IL6, and IL-1β according to the manufacturer's protocol. Samples were analyzed with LSR-II (BD Biosciences). Data was acquired with FACSDiva software (BD Biosciences) and analyzed with FCAP array software 3.0 (BD Biosciences).

For `CCCCCCCC=O` [octanal], the “Olfr2 mRNA and protein expression in BMDMs” value (Olfr2; LPS + octanal combined) was “potentiated”, the “Olfr2 mRNA and protein expression in BMDMs” value (Olfr2; octanal 10 μM) was “enhanced” and the “LPS-induced expression of TNF, IL6 and NOS2 in hMDMs” value (OR6A2; LPS 500 ng/mL + octanal 10 μM) was “enhanced the LPS-induced expression”. The “secretion of inflammatory molecules (IL6, TNF) in hMDM supernatant” value (OR6A2; LPS + octanal, cytokine bead array) was “enhanced” and the “mRNA expression of TNF, IL6 and NOS2 in hMDMs” value (OR6A2; octanal 10 μM) was “induced mRNA expression”.
